From the supplement of paper PMC11451515

System: P12-Ichikawa
Assay: cell viability relative to DMSO control; higher = less cytotoxic
Conditions: 48 h
Outline: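 NOMO1 or SEM cells were plated at 500 cells/well and P12-Ichikawa cells at 1000 cells/well in 1536-well plates (5 μl), after each leukemia line had been adapted for at least four passages in each medium. Pin dosing delivered library compounds in DMSO at 11 threefold concentrations, 47 μM to 0.79 nM. CellTiter-Glo One luminescence was read after 48 h at 37°C. Viability is reported as a per-plate percentage of DMSO wells, with cell-free wells as background.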

[1] = HPLM + 10% dialyzed FBS, 0.000781 µM
[2] = HPLM + 10% dialyzed FBS, 0.00234 µM
[3] = HPLM + 10% dialyzed FBS, 0.00702 µM
[4] = HPLM + 10% dialyzed FBS, 0.0211 µM
[5] = HPLM + 10% dialyzed FBS, 0.0632 µM
[6] = HPLM + 10% dialyzed FBS, 0.19 µM
[7] = HPLM + 10% dialyzed FBS, 0.569 µM
[8] = HPLM + 10% dialyzed FBS, 1.71 µM
[9] = HPLM + 10% dialyzed FBS, 5.12 µM
[10] = HPLM + 10% dialyzed FBS, 15.4 µM
[11] = HPLM + 10% dialyzed FBS, 46.1 µM
[12] = RPMI 5 mM glucose + 10% FBS, 0.000781 µM
[13] = RPMI 5 mM glucose + 10% FBS, 0.00234 µM
[14] = RPMI 5 mM glucose + 10% FBS, 0.00702 µM
[15] = RPMI 5 mM glucose + 10% FBS, 0.0211 µM
[16] = RPMI 5 mM glucose + 10% FBS, 0.0632 µM
[17] = RPMI 5 mM glucose + 10% FBS, 0.19 µM
[18] = RPMI 5 mM glucose + 10% FBS, 0.569 µM
[19] = RPMI 5 mM glucose + 10% FBS, 1.71 µM
[20] = RPMI 5 mM glucose + 10% FBS, 5.12 µM
[21] = RPMI 5 mM glucose + 10% FBS, 15.4 µM
[22] = RPMI 5 mM glucose + 10% FBS, 46.1 µM
[23] = RPMI 5 mM glucose + 10% dialyzed FBS, 0.000781 µM
[24] = RPMI 5 mM glucose + 10% dialyzed FBS, 0.00234 µM
[25] = RPMI 5 mM glucose + 10% dialyzed FBS, 0.00702 µM
[26] = RPMI 5 mM glucose + 10% dialyzed FBS, 0.0211 µM
[27] = RPMI 5 mM glucose + 10% dialyzed FBS, 0.0632 µM
[28] = RPMI 5 mM glucose + 10% dialyzed FBS, 0.19 µM
[29] = RPMI 5 mM glucose + 10% dialyzed FBS, 0.569 µM
[30] = RPMI 5 mM glucose + 10% dialyzed FBS, 1.71 µM
[31] = RPMI 5 mM glucose + 10% dialyzed FBS, 5.12 µM
[32] = RPMI 5 mM glucose + 10% dialyzed FBS, 15.4 µM
[33] = RPMI 5 mM glucose + 10% dialyzed FBS, 46.1 µM

SMILES | cell viability [1] [%] | cell viability [2] [%] | cell viability [3] [%] | cell viability [4] [%] | cell viability [5] [%] | cell viability [6] [%] | cell viability [7] [%] | cell viability [8] [%] | cell viability [9] [%] | cell viability [10] [%] | cell viability [11] [%] | cell viability [12] [%] | cell viability [13] [%] | cell viability [14] [%] | cell viability [15] [%] | cell viability [16] [%] | cell viability [17] [%] | cell viability [18] [%] | cell viability [19] [%] | cell viability [20] [%] | cell viability [21] [%] | cell viability [22] [%] | cell viability [23] [%] | cell viability [24] [%] | cell viability [25] [%] | cell viability [26] [%] | cell viability [27] [%] | cell viability [28] [%] | cell viability [29] [%] | cell viability [30] [%] | cell viability [31] [%] | cell viability [32] [%] | cell viability [33] [%]
C[C@@H]1CN(Cc2ccc(F)cc2)[C@@H](C)CN1C(=O)c1cc2c(C(=O)C(=O)N(C)C)cn(C)c2cc1Cl | 111 | 118 | 118 | 128 | 115 | 123 | 125 | 125 | 125 | 125 | 108 | 110 | 114 | 111 | 126 | 122 | 124 | 132 | 113 | 124 | 117 | 107 | 119 | 132 | 117 | 124 | 122 | 130 | 124 | 127 | 123 | 118 | 117
N#CC(c1ccnc(NCCc2cccnc2)n1)c1nc2ccccc2s1 (stereo not given) | 115 | 128 | 120 | 127 | 127 | 134 | 131 | 121 | 141 | 141 | 118 | – | – | – | – | – | – | – | – | – | – | – | 122 | 136 | 122 | 145 | 142 | 152 | 151 | 148 | 140 | 133 | 120
NC(=O)Nc1sc(-c2ccc(F)cc2)cc1C(N)=O | 113 | 115 | 116 | 108 | 114 | 111 | 104 | 105 | 83.4 | 67.3 | 24.3 | 113 | 114 | 111 | 110 | 105 | 119 | 106 | 106 | 83.9 | 64.6 | 22.1 | 118 | 119 | 117 | 110 | 115 | 112 | 110 | 97.3 | 82.4 | 70.2 | 27.3
O=C1CCC[C@@H]2[C@H]3CCCN4CCC[C@@H](CN12)[C@@H]34 | 78.4 | 85.5 | 83.3 | 87.4 | 96.1 | 92.1 | 83.1 | 88.2 | 92.5 | 98.1 | 93.4 | 83.7 | 83.6 | 77.8 | 87.6 | 88.9 | 85.7 | 76.3 | 86 | 79.3 | 87.6 | 75.7 | 74.9 | 79 | 79.7 | 81.8 | 86.8 | 83.7 | 80.1 | 86.2 | 76.9 | 84.7 | 80.9
CC(NC(C)(C)C)C(=O)c1cccc(Cl)c1 (stereo not given) | 114 | 113 | 117 | 118 | 117 | 111 | 120 | 124 | 122 | 115 | 115 | – | – | – | – | – | – | – | – | – | – | – | 114 | 127 | 119 | 123 | 123 | 128 | 125 | 124 | 121 | 118 | 108
N[S+](=O)([O-])c1cc2c(cc1Cl)NC(C(Cl)Cl)N[S+]2(=O)[O-] (stereo not given) | 102 | 109 | 105 | 112 | 113 | 118 | 117 | 120 | 114 | 123 | 118 | 114 | 120 | 111 | 120 | 126 | 129 | 127 | 130 | 139 | 123 | 128 | 109 | 117 | 104 | 118 | 118 | 122 | 114 | 124 | 121 | 122 | 115
O=C([O-])C[C@H](O)C[C@H](O)/C=C/c1c(C2CC2)nc2ccccc2c1-c1ccc(F)cc1 | 107 | 111 | 115 | 110 | 117 | 114 | 110 | 103 | 69.3 | 49.1 | 26.2 | 110 | 117 | 116 | 113 | 124 | 116 | 105 | 87.9 | 52.3 | 19.5 | 14.7 | 113 | 114 | 113 | 107 | 119 | 116 | 115 | 93.6 | 58.2 | 36.9 | 19.3
CC[N+](CC)(CC)CCOc1cccc(OCC[N+](CC)(CC)CC)c1OCC[N+](CC)(CC)CC | 116 | 109 | 101 | 107 | 127 | 120 | 98.9 | 91.6 | 100 | 107 | 97 | 124 | 115 | 112 | 124 | 114 | 115 | 107 | 108 | 111 | 110 | 103 | 108 | 101 | 108 | 109 | 120 | 109 | 100 | 104 | 103 | 95.2 | 100
N#Cc1ccc(Oc2ccc3c(c2)COB3O)cc1 | 112 | 119 | 123 | 90.6 | 129 | 125 | 125 | 102 | 81.5 | 80.6 | 33.9 | 117 | 120 | 127 | 81.7 | 135 | 125 | 139 | 138 | 123 | 124 | 53.1 | 119 | 117 | 113 | 83.9 | 132 | 120 | 135 | 139 | 130 | 124 | 38.6
CCc1cc(C(N)=S)ccn1 | 116 | 115 | 120 | 126 | 124 | 122 | 127 | 114 | 104 | 93.7 | 80.2 | 108 | 121 | 118 | 115 | 122 | 134 | 119 | 128 | 114 | 103 | 104 | 111 | 124 | 119 | 120 | 121 | 129 | 122 | 120 | 104 | 95.9 | 86.5
CCn1c(-c2nonc2N)nc2c(C#CC(C)(C)O)ncc(OC[C@H]3CCCNC3)c21 | 91.1 | 94 | 89 | 84.1 | 73.1 | 74.6 | 69.9 | 66.3 | 65.8 | 61.4 | 58.7 | 77 | 86.2 | 76.2 | 70.6 | 53.1 | 56.4 | 46.2 | 52.7 | 45.1 | 45.9 | 46.7 | 81.2 | 87.4 | 80.5 | 77.3 | 66.5 | 66.7 | 58.9 | 56.6 | 48.8 | 50.2 | 49.9
[O-]C(=O)C/1=N/C(=O)NC(=O)N1 | 99 | 97 | 98.3 | 93.3 | 102 | 98 | 90.1 | 91.2 | 81.8 | 80.9 | 83.4 | 92.2 | 97.2 | 90 | 96.6 | 90.2 | 92.3 | 87.6 | 91.8 | 82.6 | 82.1 | 80.2 | 90.6 | 89.4 | 88.4 | 95.8 | 92.8 | 81.8 | 85.3 | 93.2 | 88 | 82.4 | 76.5
CN1CCN(c2c(F)cc3c(=O)c(C(=O)O)cn(CCF)c3c2F)CC1 | 99.8 | 101 | 106 | 112 | 112 | 111 | 111 | 115 | 121 | 120 | 108 | 101 | 104 | 95.5 | 108 | 109 | 121 | 107 | 108 | 103 | 112 | 111 | 95.9 | 104 | 110 | 107 | 110 | 107 | 110 | 108 | 119 | 115 | 116
CC[C@]12CC[C@H]3[C@@H](CCC/4=C/C(=O)CC[C@H]34)[C@@H]1CC[C@@]2(O)C#C | 94.2 | 85.6 | 83.8 | 87.2 | 104 | 89.2 | 68.9 | 79.3 | 85.5 | 82.6 | 90.5 | 86.3 | 88.3 | 87.2 | 90.4 | 85.1 | 83.9 | 75.1 | 88 | 86.1 | 79.6 | 83.7 | 83.3 | 79.5 | 88.3 | 79.3 | 86.7 | 78 | 81.3 | 77 | 83.1 | 73 | 79.7
CCOc1cc2ncc(C#N)c(Nc3ccc(F)c(Cl)c3)c2cc1NC(=O)/C=C/CN(C)C | 118 | 116 | 131 | 122 | 116 | 71.7 | 80.9 | 61.1 | 41.6 | 21.1 | 2.69 | 121 | 120 | 123 | 128 | 121 | 95.2 | 85.3 | 71.9 | 57.6 | 26.3 | 5.42 | – | – | – | – | – | – | – | – | – | – | –
CC\12CCC(=O)\C=C1CCC3C2CCC4(C)C3CCC4(O)C#C (stereo not given) | 102 | 101 | 99.2 | 93.9 | 97.9 | 93.4 | 92 | 92.3 | 94.2 | 80.6 | 92.3 | 99.3 | 102 | 97.7 | 100 | 96.8 | 97.1 | 93.1 | 96.6 | 85.7 | 81.8 | 90.3 | 83.5 | 85.6 | 88.9 | 91.1 | 95.7 | 93.6 | 91.1 | 88.6 | 85.4 | 84.2 | 83
